Test results taken from patent US20020173538A1, “Method for sensitizing cancer cells to cancer therapies with a mevalonate-reducing compound” (priority 2000, published 2002).
Where two headings read alike, the source gives them in different places. Marks after values point to notes of the source that are not given here.

Experiments:
Hep 3B cells [1] = test: MTT cell viability assay, Hep 3B cells (serum-free DMEM); conditions: for viability at 1.25 µM / viability at 5 µM / viability at 10 µM / viability at 25 µM / IC50 / viability at 0.1 µM / viability at 0.5 µM / viability at 1 µM / viability at 2 µM / viability at 50 µM: Homo sapiens, Hep3B
From the text: (§1) Human hepatoma cell lines Hep G2 and Hep 3 were chosen as the in vitro models of hepatocytes and hepatoma, respectively.

[2] = MTT cell viability assay, Hep G2 cells (serum-free DMEM); conditions: human, Hep G2 cells, Cell viability
From the text: as §1

Hep G2 cells = test: as above; conditions: Homo sapiens
From the text: as §1

Hep 3B cells [3] = test: Cell cycle determination by flow cytometry, Hep 3B; format: cell-based, human; conditions: cell line not given
Hep 3B cells [4] = conditions: human, 48 h
From the text: as §1

in vitro = conditions: human, Cell viability
From the text: as §1

[5] = 48 h, read-out: IC50 (cell viability), 48 hr
[6] = 72 h, read-out: IC50 (cell viability), 72 hr
[7] = no lovastatin 48 hr, then CAO 1.25 μM 48 hr
[8] = no lovastatin 48 hr, then CAO 5 μM 48 hr
[9] = HepG2, 48 h, read-out: IC50 (cell viability), 48 hr
[10] = HepG2, 72 h, read-out: IC50 (cell viability), 72 hr

CCCCCCCCOC(=O)/C=C/c1ccc(O)c(O)c1 [CAO, caffeic acid 1-octyl ester]
Ratio, inhibition (%) Hep 3B/inhibition (%) Hep G2 (Hep 3B cells [1]; CAO 1.25 μM alone, 96 hr): 1.3* | Ratio, inhibition (%) Hep 3B/inhibition (%) Hep G2 (Hep 3B cells [1]; CAO 5 μM alone, 96 hr): 0.9 | Ratio, inhibition (%) Hep 3B/inhibition (%) Hep G2 (Hep 3B cells [1]; CAO 5 μM, 48 hr): 0.9** | Ratio, inhibition (%) Hep 3B/inhibition (%) Hep G2 (Hep 3B cells [1]; CAO 5 μM, 72 hr): 1.0 | Ratio, inhibition (%) Hep 3B/inhibition (%) Hep G2 (Hep 3B cells [1]; CAO 10 μM, 48 hr): 0.8 | Ratio, inhibition (%) Hep 3B/inhibition (%) Hep G2 (Hep 3B cells [1]; CAO 10 μM, 72 hr): 1.0 | Ratio, inhibition (%) Hep 3B/inhibition (%) Hep G2 (Hep 3B cells [1]; CAO 25 μM, 48 hr): 1.0* | Ratio, inhibition (%) Hep 3B/inhibition (%) Hep G2 (Hep 3B cells [1]; CAO 25 μM, 72 hr): 1.0 | viability at 1.25 µM (Hep 3B cells [1]; 48 h, read-out: Cell viability, CAO 1.25 μM, 48 hr): 97.8 ± 4.1% | viability at 5 µM (Hep 3B cells [1]; 48 h, read-out: Cell viability, CAO 5 μM, 48 hr): 52 ± 1.8% | viability at 10 µM (Hep 3B cells [1]; 48 h, read-out: Cell viability, CAO 10 μM, 48 hr): 21.7 ± 3.9% | viability at 25 µM (Hep 3B cells [1]; 48 h, read-out: Cell viability, CAO 25 μM, 48 hr): 3.9 ± 1.3% | IC50 (Hep 3B cells [1]; [5]): 5.3 µM | viability at 1.25 µM (Hep 3B cells [1]; 72 h, read-out: Cell viability, CAO 1.25 μM, 72 hr): 89.8 ± 0.6% | viability at 5 µM (Hep 3B cells [1]; 72 h, read-out: Cell viability, CAO 5 μM, 72 hr): 16.3 ± 2.6% | viability at 10 µM (Hep 3B cells [1]; 72 h, read-out: Cell viability, CAO 10 μM, 72 hr): 2.4 ± 1.6% | viability at 25 µM (Hep 3B cells [1]; 72 h, read-out: Cell viability, CAO 25 μM, 72 hr): 0% | IC50 (Hep 3B cells [1]; [6]): 2.9 µM | viability at 1.25 µM (Hep 3B cells [1]; 96 h, read-out: Cell viability, CAO 1.25 μM alone, 96 hr): 66.9 ± 2.9% | viability at 5 µM (Hep 3B cells [1]; 96 h, read-out: Cell viability, CAO 5 μM alone, 96 hr): 20.1 ± 5.7% | Cell viability (Hep 3B cells [1]; [7]): 83.0 ± 4.4^b % of control | Ratio, inhibition (%) Hep 3B/inhibition (%) Hep G2 (Hep 3B cells [1]; [7]): 17.0*** | Cell viability (Hep 3B cells [1]; [8]): 53.2 ± 4.5^d % of control | Ratio, inhibition (%) Hep 3B/inhibition (%) Hep G2 (Hep 3B cells [1]; [8]): 0.8* | viability at 96 h, 1.25 μM ([2]; CAO 1.25 μM alone, 96 hr): 74 ± 2.9% | viability at 48 h, 1.25 μM ([2]; CAO 1.25 μM, 48 hr): 104 ± 4.6% | viability at 72 h, 1.25 μM ([2]; CAO 1.25 μM, 72 hr): 102.7 ± 0.4% | viability at 96 h, 5 μM ([2]; CAO 5 μM alone, 96 hr): 16.2 ± 1.2% | viability at 48 h, 5 μM ([2]; CAO 5 μM, 48 hr): 44.2 ± 6.6% | viability at 72 h, 5 μM ([2]; CAO 5 μM, 72 hr): 18.1 ± 2.1% | viability at 48 h, 10 μM ([2]; CAO 10 μM, 48 hr): 5.8 ± 3.9% | viability at 72 h, 10 μM ([2]; CAO 10 μM, 72 hr): 0% | viability at 48 h, 25 μM ([2]; CAO 25 μM, 48 hr): 0% | viability at 72 h, 25 μM ([2]; CAO 25 μM, 72 hr): 0% | viability at 48 h, 1.25 μM [2, 7]: 99 ± 4.1% | viability at 48 h, 5 μM [2, 8]: 42.8 ± 3% | IC50 (Hep G2 cells; [9]): 4 µM | IC50 (Hep G2 cells; [10]): 2.7 µM

COc1cccc2c1C(=O)c1c(O)c3c(c(O)c1C2=O)C[C@@](O)(C(=O)CO)C[C@@H]3O[C@H]1C[C@H](N)[C@H](O)[C@H](C)O1 [DOX, doxorubicin]
Ratio, inhibition (%) Hep 3B/inhibition (%) Hep G2 (Hep 3B cells [1]; DOX 0.5 μM, 48 hr): 0.6*** | Ratio, inhibition (%) Hep 3B/inhibition (%) Hep G2 (Hep 3B cells [1]; DOX 0.5 μM, 72 hr): 0.7* | Ratio, inhibition (%) Hep 3B/inhibition (%) Hep G2 (Hep 3B cells [1]; DOX 1 μM, 48 hr): 0.6*** | Ratio, inhibition (%) Hep 3B/inhibition (%) Hep G2 (Hep 3B cells [1]; DOX 1 μM, 72 hr): 0.6** | Ratio, inhibition (%) Hep 3B/inhibition (%) Hep G2 (Hep 3B cells [1]; DOX 2 μM, 48 hr): 0.7*** | Ratio, inhibition (%) Hep 3B/inhibition (%) Hep G2 (Hep 3B cells [1]; DOX 2 μM, 72 hr): 0.9** | viability at 0.1 µM (Hep 3B cells [1]; 48 h, read-out: Cell viability, DOX 0.1 μM, 48 hr): 99.9 ± 7.8% | viability at 0.5 µM (Hep 3B cells [1]; 48 h, read-out: Cell viability, DOX 0.5 μM, 48 hr): 66.7 ± 1.6% | viability at 1 µM (Hep 3B cells [1]; 48 h, read-out: Cell viability, DOX 1 μM, 48 hr): 59.3 ± 4.1% | viability at 2 µM (Hep 3B cells [1]; 48 h, read-out: Cell viability, DOX 2 μM, 48 hr): 40.1 ± 3% | IC50 (Hep 3B cells [1]; [5]): 1.5 µM | viability at 0.1 µM (Hep 3B cells [1]; 72 h, read-out: Cell viability, DOX 0.1 μM, 72 hr): 100 ± 5.8% | viability at 0.5 µM (Hep 3B cells [1]; 72 h, read-out: Cell viability, DOX 0.5 μM, 72 hr): 62.1 ± 6.9% | viability at 1 µM (Hep 3B cells [1]; 72 h, read-out: Cell viability, DOX 1 μM, 72 hr): 48.9 ± 8.4% | viability at 2 µM (Hep 3B cells [1]; 72 h, read-out: Cell viability, DOX 2 μM, 72 hr): 9.9 ± 2.7% | IC50 (Hep 3B cells [1]; [6]): 1 µM | viability at 48 hr, 0.1 μM ([2]; DOX 0.1 μM, 48 hr): 100 ± 5.3% | viability at 72 hr, 0.1 μM ([2]; DOX 0.1 μM, 72 hr): 99.9 ± 7.5% | viability at 48 hr, 0.5 μM ([2]; DOX 0.5 μM, 48 hr): 42.8 ± 3.7% | viability at 72 hr, 0.5 μM ([2]; DOX 0.5 μM, 72 hr): 46.7 ± 4% | viability at 48 hr, 1 μM ([2]; DOX 1 μM, 48 hr): 29.1 ± 1.7% | viability at 72 hr, 1 μM ([2]; DOX 1 μM, 72 hr): 20 ± 1.1% | viability at 48 hr, 2 μM ([2]; DOX 2 μM, 48 hr): 16.7 ± 2.4% | viability at 72 hr, 2 μM ([2]; DOX 2 μM, 72 hr): 1.9 ± 0.8% | IC50 (Hep G2 cells; [9]): 0.4 µM | IC50 (Hep G2 cells; [10]): 0.5 µM

O=C(/C=C/c1ccc(O)c(O)c1)OCCc1ccccc1 [CAPE, caffeic acid phenethyl ester]
Ratio, inhibition (%) Hep 3B/inhibition (%) Hep G2 (Hep 3B cells [1]; CAPE 5 μM alone, 72 hr, Table 23): 0.4** | Ratio, inhibition (%) Hep 3B/inhibition (%) Hep G2 (Hep 3B cells [1]; CAPE 5 μM, 48 hr): 0.4*** | Ratio, inhibition (%) Hep 3B/inhibition (%) Hep G2 (Hep 3B cells [1]; CAPE 5 μM, 72 hr): 0.5*** | Ratio, inhibition (%) Hep 3B/inhibition (%) Hep G2 (Hep 3B cells [1]; CAPE 10 μM alone, 72 hr, Table 23): 0.6*** | Ratio, inhibition (%) Hep 3B/inhibition (%) Hep G2 (Hep 3B cells [1]; CAPE 10 μM, 48 hr): 0.5*** | Ratio, inhibition (%) Hep 3B/inhibition (%) Hep G2 (Hep 3B cells [1]; CAPE 10 μM, 72 hr): 0.7** | Ratio, inhibition (%) Hep 3B/inhibition (%) Hep G2 (Hep 3B cells [1]; CAPE 25 μM alone, 72 hr, Table 23): 0.9 | Ratio, inhibition (%) Hep 3B/inhibition (%) Hep G2 (Hep 3B cells [1]; CAPE 25 μM, 48 hr): 1.1 | Ratio, inhibition (%) Hep 3B/inhibition (%) Hep G2 (Hep 3B cells [1]; CAPE 25 μM, 72 hr): 1.0 | Ratio, inhibition (%) Hep 3B/inhibition (%) Hep G2 (Hep 3B cells [1]; CAPE 50 μM, 48 hr): 0.9** | Ratio, inhibition (%) Hep 3B/inhibition (%) Hep G2 (Hep 3B cells [1]; CAPE 50 μM, 72 hr): 1.0 | viability at 5 µM (Hep 3B cells [1]; 48 h, read-out: Cell viability, CAPE 5 μM, 48 hr): 87.1 ± 1.8% | viability at 10 µM (Hep 3B cells [1]; 48 h, read-out: Cell viability, CAPE 10 μM, 48 hr): 73.2 ± 1.2% | viability at 25 µM (Hep 3B cells [1]; 48 h, read-out: Cell viability, CAPE 25 μM, 48 hr): 38.2 ± 4.7% | viability at 50 µM (Hep 3B cells [1]; 48 h, read-out: Cell viability, CAPE 50 μM, 48 hr): 20.5 ± 4.6% | IC50 (Hep 3B cells [1]; [5]): 19.9 µM | viability at 5 µM (Hep 3B cells [1]; 72 h, read-out: Cell viability, CAPE 5 μM alone, 72 hr, Table 23): 74.2 ± 6.8% | viability at 5 µM (Hep 3B cells [1]; 72 h, read-out: Cell viability, CAPE 5 μM, 72 hr): 70.8 ± 2.6% | viability at 10 µM (Hep 3B cells [1]; 72 h, read-out: Cell viability, CAPE 10 μM alone, 72 hr, Table 23): 53.5 ± 5% | viability at 10 µM (Hep 3B cells [1]; 72 h, read-out: Cell viability, CAPE 10 μM, 72 hr): 47.6 ± 1.9% | viability at 25 µM (Hep 3B cells [1]; 72 h, read-out: Cell viability, CAPE 25 μM alone, 72 hr, Table 23): 22.3 ± 5.7% | viability at 25 µM (Hep 3B cells [1]; 72 h, read-out: Cell viability, CAPE 25 μM, 72 hr): 12.5 ± 4.8% | viability at 50 µM (Hep 3B cells [1]; 72 h, read-out: Cell viability, CAPE 50 μM, 72 hr): 0% | IC50 (Hep 3B cells [1]; [6]): 9.5 µM | Ratio, inhibition (%) Hep 3B/inhibition (%) Hep G2 (Hep 3B cells [1]; no lovastatin 48 hr, then CAPE 5 μM 48 hr): 0.4*** | Ratio, inhibition (%) Hep 3B/inhibition (%) Hep G2 (Hep 3B cells [1]; no lovastatin 48 hr, then CAPE 10 μM 48 hr): 0.4*** | IC50 (Hep G2 cells; [9]): 9.5 µM | IC50 (Hep G2 cells; [10]): 4.5 µM | cell cycle arrest stage (Hep 3B cells [3]): G1 arrest | Cell viability (Hep 3B cells [4]; 5 μM): 88.8 ± 1.6^b % of control | Cell viability (Hep 3B cells [4]; 10 μM): 77.4 ± 1.8^c % of control | viability at 48 h, 5 μM (in vitro): 70.2 ± 1.7% | viability at 48 h, 10 μM (in vitro): 47.7 ± 5.6% | viability at 48 hr, 5 μM (in vitro): 71.1 ± 1.8% | viability at 48 hr, 10 μM (in vitro): 47.4 ± 3% | viability at 48 hr, 25 μM (in vitro): 42.6 ± 1.3% | viability at 48 hr, 50 μM (in vitro): 7.5 ± 0.6% | viability at 72 h, 5 μM (in vitro): 36.8 ± 6.7% | viability at 72 h, 10 μM (in vitro): 20 ± 4% | viability at 72 h, 25 μM (in vitro): 13.2 ± 1.1% | viability at 72 hr, 5 μM (in vitro): 42.3 ± 2.5% | viability at 72 hr, 10 μM (in vitro): 21.2 ± 5% | viability at 72 hr, 25 μM (in vitro): 12.5 ± 3% | viability at 72 hr, 50 μM (in vitro): 1.9 ± 1.8%
